Experimental data: PubChem BioAssay (NCI)
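Results reflect a 48-hour exposure of cells in 96-well plates to compound at five concentrations. Here, GI50 denotes the concentration required for 50% inhibition of growth. TGI: concentration producing complete growth inhibition.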

Assays:
Test in all cases: inhibition of tumour cell growth, NCI panel, 48 h
HCT-116 colon = system: HCT-116 colon
HS 578T breast = system: HS 578T breast
IGROV1 ovarian = system: IGROV1 ovarian
NCI-H23 lung = system: NCI-H23 lung
NCI-H460 lung = system: NCI-H460 lung
OVCAR-8 ovarian = system: OVCAR-8 ovarian
SF-268 CNS = system: SF-268 CNS
SNB-19 CNS = system: SNB-19 CNS
U251 CNS = system: U251 CNS
CAKI-1 renal = system: CAKI-1 renal

SMILES | TGI (HCT-116 colon) [µM] | TGI (HS 578T breast) [µM] | TGI (IGROV1 ovarian) [µM] | TGI (NCI-H23 lung) [µM] | TGI (NCI-H460 lung) [µM] | TGI (OVCAR-8 ovarian) [µM] | TGI (SF-268 CNS) [µM] | TGI (SNB-19 CNS) [µM] | TGI (U251 CNS) [µM] | TGI (CAKI-1 renal) [µM] | GI50 (CAKI-1 renal) [µM] | GI50 (HCT-116 colon) [µM] | GI50 (HS 578T breast) [µM] | GI50 (IGROV1 ovarian) [µM] | GI50 (NCI-H23 lung) [µM] | GI50 (NCI-H460 lung) [µM] | GI50 (OVCAR-8 ovarian) [µM] | GI50 (SF-268 CNS) [µM] | GI50 (SNB-19 CNS) [µM] | GI50 (U251 CNS) [µM]
COc1ccc2c3c([nH]c2c1)CCN(Cc1ccccc1)C3 | > 100 | 56.9 | > 100 | > 100 | 37.7 | > 100 | > 100 | 44.3 | 53.4 | – | – | – | – | – | – | – | – | – | – | –
Cc1nc2[nH]ncn2c(=O)c1CCO | > 10 | > 10 | > 10 | > 10 | > 10 | > 10 | > 10 | > 10 | > 10 | > 10 | – | – | – | – | – | – | – | – | – | –
CC(CN(C)C)C(=O)c1ccccc1 (stereo unspecified) | > 53 | – | > 100 | 68 | > 100 | > 91.2 | 85 | > 100 | > 100 | 15.6 | – | – | – | – | – | – | – | – | – | –
COc1cc(C2c3cc4c(cc3[C@@H](Oc3ccc(F)cc3)C3COC(=O)[C@H]23)OCO4)cc(OC)c1O (stereo partly specified) | > 100 | – | > 100 | > 100 | 25.4 | > 100 | > 100 | – | > 100 | 14.5 | – | – | – | – | – | – | – | – | – | –
COc1ccc(C2C3CCCC(C3=O)C(c3ccc(OC)cc3)N2N=O)cc1 (stereo unspecified) | > 74.9 | – | 97.5 | 44.5 | 42.2 | > 100 | > 100 | > 91.2 | > 100 | > 100 | – | – | – | – | – | – | – | – | – | –
ClCc1cccc(CSc2ncnc3c2ncn3Cc2cccc(CCl)c2)c1 | 3.31 | > 100 | 4.51 | 3.88 | 4.76 | 6.24 | 4.91 | 3.46 | 3.01 | 4.34 | 1.92 | 1.76 | 5.39 | 1.95 | 1.75 | 2.04 | 2.11 | 1.99 | 1.85 | 1.59
COc1ccc2c(c1)c(=O)c1c(NCCN(C)C)ccc3nnn2c31 | 13.4 | – | 17.4 | 13.1 | 8.54 | 13.6 | 14.9 | 19.7 | 16.5 | 13.6 | – | – | – | – | – | – | – | – | – | –
CCOC(=O)Cc1cnc(NC(NC(=O)CC)(C(F)(F)F)C(F)(F)F)s1 | > 100 | > 100 | – | > 100 | > 100 | – | > 100 | > 100 | > 100 | – | – | – | – | – | – | – | – | – | – | –
COc1ccc(N2C(=O)C3c4[nH]c5ccc(F)cc5c4C4CCC(C(C)(C)C)CC4C3C2=O)cc1 (stereo unspecified) | > 10 | > 10 | > 10 | > 10 | > 10 | > 10 | > 10 | > 10 | > 10 | > 10 | – | – | – | – | – | – | – | – | – | –
O=C(NCCNc1nccc(-c2c(-c3cccc(O)c3)nc3sccn23)n1)c1ccccc1 | 17.5 | 38.3 | 50.9 | 30.7 | 27.5 | 78.8 | 87 | > 100 | > 100 | 29.6 | 5.92 | 4.82 | 4.86 | 3.61 | 10 | 10.4 | 11.1 | 15.5 | 29.4 | 17.9
O=C(NNS(=O)(=O)c1ccccc1)c1cccnc1 | > 100 | > 100 | > 100 | > 100 | > 100 | > 100 | > 100 | > 100 | > 100 | > 100 | – | – | – | – | – | – | – | – | – | –
